Laboratory results taken from patent US9226500B2, “Pesticidal compositions and processes related thereto” (Dow AgroSciences LLC, priority 2012, dated 2016).

System: Beet Armyworm (Spodoptera exigua)
Test: Bioassay on Beet Armyworm (BAW), 128-well diet tray assay
Format: in vivo
Details: Table 3, Assays Results Part 1
Description: Certain molecules disclosed in this document were tested against BAW, CEW and CL using procedures described in the following examples. In the reporting of the results, the “BAW & CEW & CL Rating Table” was used (See Table Section).
Bioassays on BAW (Spodoptera exigua)
Bioassays on BAW were conducted using a 128-well diet tray assay. One to five second instar BAW larvae were placed in each well (3 mL) of the diet tray that had been previously filled with 1 mL of artificial diet to which 50 μg/cm^2 of the test compound (dissolved in 50 μL of 90:10 acetone-water mixture) had been applied (to each of eight wells) and then allowed to dry. Trays were covered with a clear self-adhesive cover, and held at 25° C., 14:10 light-dark for five to seven days. Percent mortality was recorded for the larvae in each well; activity in the eight wells was then averaged. The results are indicated in the tables entitled “Table 3: Assay Results Part 1” and “Table 4: Assay Results Part 2” (See Table Section).

Structure (SMILES) | BAW Rating
FC(F)(F)C(/C=C/c1ccc(CNC(=S)C2CC2)c(Cl)c1)c1cc(Cl)c(Cl)c(Cl)c1 (stereo not drawn) [CC20] | A (50-100)
FC(F)(F)C(/C=C/c1ccc(CNc2ccccn2)c(Cl)c1)c1cc(Cl)c(Cl)c(Cl)c1 (stereo not drawn) [CC43, (E)-N-(2-Chloro-4-(4,4,4-trifluoro-3-(3,4,5-trichlorophenyl)but-1-en-1-yl)benzyl)pyridin-2-amine] | A (50-100)
O=C(NC1CSC1)c1ccc(/C=C/C(c2cc(Cl)c(F)c(Cl)c2)C(F)(F)F)cc1F (stereo not drawn) [AC67] | A (50-100)
N#Cc1cc(/C=C/C(c2cc(Cl)c(Cl)c(Cl)c2)C(F)(F)F)ccc1-n1cnc(NC(=O)C2CC2)n1 (stereo not drawn) [DC43, (E)-N-(1-(2-Cyano-4-(4,4,4-trifluoro-3-(3,4,5-trichlorophenyl)but-1-en-1-yl)phenyl)-1H-1,2,4-triazol-3-yl)cyclopropanecarboxamide] | A (50-100)
C=CCNC(=O)CNC(=O)c1ccc(/C=C/C(c2cc(Cl)c(Cl)c(Cl)c2)C(F)(F)F)cc1Br (stereo not drawn) [AC111] | A (50-100)
FC(F)(F)C(/C=C/c1ccc(-n2cncn2)cc1Cl)c1cc(Cl)c(Cl)c(Cl)c1 (stereo not drawn) [DC66] | A (50-100)
Cc1cc(/C=C/C(c2cc(Cl)cc(Cl)c2)C(F)(F)F)ccc1C(=O)NCc1cncnc1 (stereo not drawn) [AC39, 4-((E)-3-(3,5-Dichlorophenyl)-4,4,4-trifluorobut-1-enyl)-2-methyl-N-((pyrimidin-5-yl)methyl)benzamide] | A (50-100)
Cc1cc(/C=C/C(c2cc(Cl)cc(Cl)c2)C(F)(F)F)ccc1C(=O)NCC(=O)NC1CSC1 (stereo not drawn) [AC41] | A (50-100)
Cc1cc(/C=C/C(c2cc(Cl)c(Cl)c(Cl)c2)C(F)(F)F)ccc1C(=O)NCc1cnc(Cl)s1 (stereo not drawn) [AC26] | A (50-100)
FC(F)(F)C(/C=C/c1ccc(-n2cncn2)c(Cl)c1)c1cc(Cl)c(Cl)c(Cl)c1 (stereo not drawn) [DC49] | A (50-100)
O=C(NC1CCN(C(=O)CC(F)(F)F)CC1)c1ccc(/C=C/C(c2cc(Cl)c(Cl)c(Cl)c2)C(F)(F)F)cc1Br (stereo not drawn) [AC104, (E)-2-Bromo-4-(4,4,4-trifluoro-3-(3,4,5-trichlorophenyl)but-1-en-1-yl)-N-(1-(3,3,3-trifluoropropanoyl)piperidin-4-yl)benzamide] | A (50-100)
O=C(NC1CSC1)c1ccc(/C=C/C(c2cc(Cl)cc(Cl)c2)C(F)(F)F)cc1F (stereo not drawn) [AC61] | A (50-100)
Cc1cc(/C=C/C(c2ccc(Cl)c(Cl)c2)C(F)(F)F)ccc1C(=O)NCc1ccc(Cl)nc1 (stereo not drawn) [AC37] | A (50-100)
O=C(CNC(=O)c1ccc(/C=C\C(c2cc(Cl)c(Cl)c(Cl)c2)C(F)(F)F)cc1Br)NCC(F)(F)F (stereo not drawn) [AC95, (Z)-2-Bromo-N-(2-oxo-2-((2,2,2-trifluoroethyl)amino)ethyl)-4-(4,4,4-trifluoro-3-(3,4,5-trichlorophenyl)but-1-en-1-yl)benzamide] | A (50-100)
O=C(NCCc1ccc(Cl)nc1)c1ccc(/C=C/C(c2cc(Cl)c(Cl)c(Cl)c2)C(F)(F)F)cc1Br (stereo not drawn) [AC113] | B (More than 0-Less than 50)
O=C(CNC(=O)c1ccc(/C=C/C(c2ccc(F)c(Cl)c2)C(F)(F)F)cc1Br)NCC(F)(F)F (stereo not drawn) [AC99] | A (50-100)
Cc1cc(/C=C/C(c2cc(Cl)cc(Cl)c2)C(F)(F)F)ccc1C(=O)NCc1nc2ccccc2s1 (stereo not drawn) [AC42] | A (50-100)
CSCCC(=O)NCc1ccc(/C=C/C(c2cc(Cl)c(Cl)c(Cl)c2)C(F)(F)F)cc1Cl (stereo not drawn) [CC19] | A (50-100)
O=C(NCc1ccc(Cl)nc1)c1ccc(/C=C/C(c2cc(Cl)c(Cl)c(Cl)c2)C(F)(F)F)cc1Cl (stereo not drawn) [AC28] | A (50-100)
O=C(CC(F)(F)F)NCc1ccc(/C=C/C(c2cc(Cl)c(Cl)c(Cl)c2)C(F)(F)F)cc1F (stereo not drawn) [CC27] | A (50-100)
O=C(NCc1ncc(/C=C/C(c2cc(Cl)c(Cl)c(Cl)c2)C(F)(F)F)cc1Cl)C1CC1 (stereo not drawn) [CC45] | A (50-100)
O=C(CC(F)(F)F)NC1CCc2cc(/C=C/C(c3cc(Cl)c(F)c(Cl)c3)C(F)(F)F)ccc21 (stereo not drawn) [BC8] | A (50-100)
CC(=O)N1CCC(NC(=O)c2ccc(/C=C/C(c3cc(Cl)c(Cl)c(Cl)c3)C(F)(F)F)cc2Br)CC1 (stereo not drawn) [AC103, (E)-N-(1-Acetylpiperidin-4-yl)-2-bromo-4-(4,4,4-trifluoro-3-(3,4,5-trichlorophenyl)but-1-en-1-yl)benzamide] | A (50-100)
Cc1cc(/C=C/C(c2cc(Cl)c(F)c(Cl)c2)C(F)(F)F)ccc1C(=O)NCc1ccc(Cl)cn1 (stereo not drawn) [AC53] | A (50-100)
CCC(=O)NCc1ccc(/C=C/C(c2cc(Cl)cc(Cl)c2)C(F)(F)F)cc1 (stereo not drawn) [CC4] | A (50-100)
FC(F)(F)C(/C=C/c1ccc(-n2cncn2)cc1)c1cc(Cl)cc(Cl)c1 (stereo not drawn) [DC1, (E)-1-(4-(3-(3,5-Dichlorophenyl)-4,4,4-trifluorobut-1-en-1-yl)phenyl)-1H-1,2,4-triazole] | A (50-100)

Structure (SMILES) | BAW Rating
FC(F)(F)CNC(=S)CNC(=S)c1ccc(/C=C/C(c2cc(Cl)c(Cl)c(Cl)c2)C(F)(F)F)cc1Br (stereo not drawn) [AC90, (E)-2-Bromo-N-(2-thioxo-2-((2,2,2-trifluoroethyl)amino)ethyl)-4-(4,4,4-trifluoro-3-(3,4,5-trichlorophenyl)but-1-en-1-yl)benzothioamide] | A (50-100)
FC(F)(F)C(/C=C/c1ccc(-n2cncn2)cc1)c1ccc(Cl)c(Cl)c1 (stereo not drawn) [DC12] | A (50-100)
C=CCNC(=S)NCc1ccc(/C=C/C(c2cc(Cl)c(Cl)c(Cl)c2)C(F)(F)F)cc1Cl (stereo not drawn) [CC38] | A (50-100)
Cc1cc(/C=C/C(c2cc(Cl)c(F)c(Cl)c2)C(F)(F)F)ccc1C(=O)NCC(=O)NCC(F)(F)F (stereo not drawn) [AC69] | A (50-100)
CCOC(=O)c1cc(/C=C/C(c2cc(Cl)cc(Cl)c2)C(F)(F)F)ccc1-n1cncn1 (stereo not drawn) [DC60] | A (50-100)
Cc1cc(/C=C/C(c2cc(Cl)c(F)c(Cl)c2)C(F)(F)F)ccc1C(=O)NCc1ccc(Cl)nc1 (stereo not drawn) [AC38] | A (50-100)
Cc1cc(/C=C/C(c2cc(Cl)c(Cl)c(Cl)c2)C(F)(F)F)ccc1-n1cncn1 (stereo not drawn) [DC63] | A (50-100)
O=C(NC1CSC1)c1ccc(/C=C/C(c2cc(Cl)c(Cl)c(Cl)c2)C(F)(F)F)cc1Cl (stereo not drawn) [AC29] | A (50-100)
O=C(CC(F)(F)F)NCc1ccc(/C=C/C(c2cc(Cl)c(Cl)c(Cl)c2)C(F)(F)F)cc1C(F)(F)F (stereo not drawn) [CC24] | A (50-100)
Fc1c(Cl)cc(C(/C=C/c2ccc3c(c2)CCC3NCCC(F)(F)F)C(F)(F)F)cc1Cl (stereo not drawn) [BC10, (E)-5-(3-(3,5-Dichloro-4-fluorophenyl)-4,4,4-trifluorobut-1-en-1-yl)-N-(3,3,3-trifluoropropyl)-2,3-dihydro-1H-inden-1-amine] | A (50-100)
CCNC(=O)NCc1ccc(/C=C/C(c2cc(Cl)cc(Cl)c2)C(F)(F)F)cc1Cl (stereo not drawn) [CC31, (E)-1-(2-Chloro-4-(3-(3,5-dichlorophenyl)-4,4,4-trifluorobut-1-en-1-yl)benzyl)-3-ethylurea] | B (More than 0-Less than 50)
Cc1cc(/C=C/C(c2cc(Cl)cc(Cl)c2)C(F)(F)F)ccc1C(=O)NCc1ncccn1 (stereo not drawn) [AC18] | A (50-100)
O=C(NCc1ccc(/C=C/C(c2cc(Cl)cc(Cl)c2)C(F)(F)F)cc1)C1CC1 (stereo not drawn) [CC2] | A (50-100)
Cc1cc(/C=C/C(c2cc(Cl)cc(Cl)c2)C(F)(F)F)ccc1C(=O)NCc1cnccn1 (stereo not drawn) [AC43] | A (50-100)
O=C(NCc1ccc(/C=C/C(c2cc(Cl)c(F)c(Cl)c2)C(F)(F)F)cc1Cl)C1CC1 (stereo not drawn) [CC15] | A (50-100)
Cc1cc(/C=C/C(c2cc(Cl)cc(Cl)c2)C(F)(F)F)ccc1C(=O)NN(C)c1ccccc1F (stereo not drawn) [AC45] | A (50-100)
CS(=O)(=O)CCC(=O)NCc1ccc(/C=C/C(c2cc(Cl)c(Cl)c(Cl)c2)C(F)(F)F)cc1Cl (stereo not drawn) [CC30, (E)-N-(2-Chloro-4-(4,4,4-trifluoro-3-(3,4,5-trichlorophenyl)but-1-en-1-yl)benzyl)-3-(methylsulfonyl)propanamide] | A (50-100)
O=C(NCc1ccc(/C=C/C(c2ccc(Cl)c(Cl)c2)C(F)(F)F)cc1Cl)C1CC1 (stereo not drawn) [CC17] | A (50-100)
O=C(NC1CCCc2cc(/C=C/C(c3cc(Cl)c(Cl)c(Cl)c3)C(F)(F)F)ccc21)C1CC1 (stereo not drawn) [BC7] | A (50-100)
Cc1cc(/C=C/C(c2cc(Cl)cc(Cl)c2)C(F)(F)F)ccc1C(=O)NC(C)(C)c1ccccn1 (stereo not drawn) [AC16] | A (50-100)
CN1CCC(NC(=O)c2ccc(/C=C/C(c3cc(Cl)c(Cl)c(Cl)c3)C(F)(F)F)cc2Br)CC1 (stereo not drawn) [AC106, (E)-2-Bromo-N-(1-methylpiperidin-4-yl)-4-(4,4,4-trifluoro-3-(3,4,5-trichlorophenyl)but-1-en-1-yl)benzamide] | A (50-100)
Cc1cc(/C=C/C(c2cc(Cl)cc(Cl)c2)C(F)(F)F)ccc1C(=O)NCc1cnc(Cl)s1 (stereo not drawn) [AC15] | A (50-100)
O=C(NCc1ccc(/C=C/C(c2cc(Cl)cc(Cl)c2)C(F)(F)F)cc1Cl)C1CC1 (stereo not drawn) [CC8] | A (50-100)
N#Cc1cc(/C=C/C(c2cc(Cl)c(Cl)c(Cl)c2)C(F)(F)F)ccc1-n1cnc(N)n1 (stereo not drawn) [DC41, (E)-2-(3-Amino-1H-1,2,4-triazol-1-yl)-5-(4,4,4-trifluoro-3-(3,4,5-trichlorophenyl)but-1-en-1-yl)benzonitrile] | A (50-100)
O=C(NC1CS(=O)(=O)C1)c1ccc(/C=C/C(c2cc(Cl)c(Cl)c(Cl)c2)C(F)(F)F)cc1C(F)(F)F (stereo not drawn) [AC35] | A (50-100)
